Where two headings read alike, the source gives them in different places.
Legend:
[1] = Stability of the selenoureas before screening; type: physicochemical
[2] = system: 184B5 cells (breast non-malignant derived cell line); experiment: MTT cell viability assay, 184B5; type: cell-based; settings: Homo sapiens, read-out: IC50 184B5 (breast, non-malignant)
Experimental: (§1) Cell lines were purchased from the American Type Culture Collection (ATCC). MCF-7, HTB-54, BEAS-2B and 184B5 cell lines were grown in RPMI 1640 medium (Gibco) supplemented with 10% fetal bovine serum (FBS; Gibco), 100 units/mL penicillin, and […] streptomycin (Gibco). HT-29 and HCT-116 cell lines was cultured in McCoy’s 5A (Gibco), 10% FBS, 100 units/mL penicillin, and 100 μg/mL streptomycin. Cells were maintained at 37 °C and 5% CO2. Culture medium was replaced every three days.
(§2) A cell viability assay of each compound was carried out using an MTT assay. Each selenourea was dissolved in dimethyl sulfoxide (DMSO) at a concentration of 0.01 M. Serial dilutions were prepared with non-supplemented culture medium. Cytotoxic activity of each selenourea was determined at two different concentrations (10 and 50 µM) in MCF-7, HTB-54, and HT-29 cells. In addition, selected compounds were tested at seven different concentrations (0.1, 1, 5, 10, 25, 50, 100 µM) on MCF-7, HT-29, HCT-116, HTB-54, 184B5, and BEAS-2B cells. The number of passages before defrosting the cells was 3, and they were kept under culture up to a maximum of 15.
(§3) Briefly, 1 × 10^4 cells/well were grown in 96-well plates for 24 h. Then, these cells were incubated with either DMSO (negative control) at 5 µM or a different concentration of each tested selenourea for 48 h. A volume of 20 µL of MTT was added 150 min before the termination point to measure cellular viability. After this time, culture medium was removed. The resultant formazan crystals were dissolved in 50 µL of DMSO, and absorbance was measured at 570 nm. Results are expressed as IC50, the half maximal inhibitory concentration. This value was calculated using GraphPad Prism 7 software by nonlinear curve fitting. Furthermore, the selectivity index (SI) was calculated as the ratio of the IC50 values determined for the non-malignant and the tumoral cells (IC50 (184B5)/IC50 (MCF-7) or (IC50 (BEAS-2B)/IC50 (HTB-54). Data were obtained from at least three independent experiments performed in triplicates.

[3] = system: MCF-7 cells (breast adenocarcinoma); experiment: MTT cell viability assay, MCF-7; type: cell-based, human; settings: for IC50 / viability at 10 µM / viability at 50 µM: Homo sapiens; for IC50: read-out: IC50 MCF-7 (breast); for viability at 10 µM / viability at 50 µM: read-out: cell viability, percentage of live cells; for SI (selectivity index) breast: IC50 (184B5)/IC50 (MCF-7)
Experimental: as §1, §2, §3
(§4) The cytotoxic effects of synthesized compounds were evaluated against three human cancer cell lines: breast adenocarcinoma (MCF-7), lung adenocarcinoma (HTB-54), and colon carcinoma (HT-29), using a 3-[4,5-dimethylthiazol-2-yl]-2,5-diphenyltetrazolium bromide (MTT) assay. Firstly, the compounds were screened at two doses (50 and 10 µM) and after 48 h of treatment. The results are summarized in Figure 4 and are presented as percentages of growth inhibition related to control.

[4] = system: HT-29 cells (colon carcinoma); experiment: MTT cell viability assay, HT-29; type: cell-based; settings: Homo sapiens; for IC50: read-out: IC50 HT-29 (colon); for viability at 10 µM / viability at 50 µM: read-out: cell viability, percentage of live cells
Experimental: as §1, §2, §3, §4

[5] = system: HTB-54 cells (lung adenocarcinoma); experiment: MTT cell viability assay, HTB-54; type: cell-based, human; settings: for IC50 / viability at 10 µM / viability at 50 µM: Homo sapiens; for IC50: read-out: IC50 HTB-54 (lung); for viability at 10 µM / viability at 50 µM: read-out: cell viability, percentage of live cells
Experimental: as §1, §2, §3, §4

[6] = DPPH radical scavenging assay; settings: for DPPH radical scavenging kinetics: 0.03 mg/mL, time-point 0 min
Experimental: (§5) From all the methods available for the prediction of the antioxidant properties, DPPH^● and ABTS^●+ assays were chosen according to their simplicity, accessibility, and effectiveness for a fast prediction of radical scavenging activities in vitro. The radical scavenging capacity of the novel selenoureas was determined by DPPH^● and ABTS^●^+ assays. Measurements were recorded on a BioTeck PowerWave XS spectrophotometer (BioTeck Instruments, Winooski (VT), USA) and the data were collected using KCJunior software (BioTeck Instruments, Winooski (VT), USA).
A DPPH assay was performed, as described by Svinyarov. Stock solutions of 1 mg/mL were initially prepared for each selenourea in methanol and this solution was used for the preparation of the different concentrations employed in the assay. Ascorbic acid (Asc) was used as positive control due to the literature reports that this derivative is a potent antioxidant and radical scavenger. A volume of 100 µL from a previously prepared stock solution (preserved in dark and daily prepared) of DPPH (100 µM) in methanol were added to 100 µL of the methanolic selenoureas solutions prepared previously, and the antioxidant activity these compounds was assessed by its ability to decolorize DPPH● radical (purple color in methanol) to DPPHH (colorless). Thus, radical scavenging activity was estimated by the decrease in the absorbance at 517 nm. Determinations were recorded at different time-points. All the measurements were carried out in triplicate. Results are expressed as the percentage of the radicals scavenged, calculated using the following formula:(1) % DPPH radical scavenging=Acontrol − Asample/Acontrol × 100 where Acontrol refers to the absorbance of the negative control and Asample refers to the absorbance of the tested compounds. Results are expressed as percentage of DPPH radical scavenging ± SD.
In order to determine the radical scavenging of these newly synthesized selenourea derivatives, the DPPH assay was firstly employed. Measurements were performed at four different concentrations ranging from 0.0003 to 0.03 mg/mL, and collected at time-points between 0 min and 120 min (Figures S81–S100). Results are presented as the percentage of inhibition for DPPH radical scavenging activity.

HCT-116 cells (colon) = experiment: MTT cell viability assay, HCT-116; type: cell-based; settings: Homo sapiens, read-out: IC50 HCT-116 (colon)
Experimental: as §1, §2, §3

[7] = system: BEAS-2B cells (lung non-malignant derived cell line); experiment: MTT cell viability assay, BEAS-2B; type: cell-based; settings: Homo sapiens, 48 h, mean ± SD
Experimental: as §1, §2, §3

[8] = ABTS radical scavenging assay; settings: 0.003 mg/mL, 60 min
Experimental: as §5
As well as DPPH, ABTS radical scavenging assay is a colorimetric method. ABTS (2,2′-azino-bis(3-ethylbenzothiazoline-6-sulfonic acid) was dissolved in deionized water at 1 mg/mL and oxidized to ABTS^●+ with potassium persulfate (2.45 mM final concentration). This oxidation process is not instantaneous, and the reaction mixture was kept in the dark overnight at room temperature. After ABTS^●+ radical was generated, the ABTS^●+ solution was diluted with 50% ethanol until an absorbance of 0.70 ± 0.02 at 734 nm for measurements was achieved. Stock solution of 1 mg/mL in absolute ethanol was prepared for each selenourea, and different dilutions were prepared to reach the final concentration, when 20 µL of this solution were added to 180 µL of the diluted ABTS^●+. The absorbance at 734 nm was recorded using 50% ethanol as blank. Trolox and Asc were used as positive controls. All determinations were carried out in triplicate. Same time intervals as in the DPPH assay were also measured. The ability to scavenge ABTS^●+ was calculated using the following formula:(2) % ABTS radical scavenging=Acontrol − Asample/Acontrol × 100 where Acontrol refers to the absorbance of the negative control and Asample refers to the absorbance of the tested compounds. The results are expressed as percentage of ABTS radical scavenging ± SD.
In order to confirm the antioxidant activity of the selenoureas, we performed an additional ABTS (2,2′-azino-bis(3-ethylbenzothiazoline-6-sulfonic acid) radical scavenging assay. Following the results obtained in the DPPH assay, this experiment was performed at 0.03 and 0.003 mg/mL. Measurements were recorded after 0′, 6′ and 60′ of incubation with ABTS. For comparison purposes, Trolox and ascorbic acid were used as references. The remarkable results are summarized in Figure 3.

Compound | stability of the compound before screening [1] | melting point | IC50 ([3]; MCF7, 48 h, MTT, mean ± SD) | viability at 10 µM ([3]; MCF7, MCF-7, 10 µM, 48 h, MTT) | viability at 50 µM ([3]; MCF7, MCF-7, 50 µM, 48 h, MTT) | IC50 ([4]; HT-29, 48 h, MTT, mean ± SD) | viability at 10 µM ([4]; HT-29, 10 µM, 48 h, MTT) | viability at 50 µM ([4]; HT-29, 50 µM, 48 h, MTT) | IC50 ([5]; HTB-54, 48 h, MTT, mean ± SD) | viability at 10 µM ([5]; HTB-54, 10 µM, 48 h, MTT) | viability at 50 µM ([5]; HTB-54, 50 µM, 48 h, MTT) | also measured
CCCCNC(=[Se])Nc1ccccc1 [Compound 4a] | decomposed before screening | 69 °C | – | – | – | – | – | – | – | – | – | –
[Se]=C(NCc1nccs1)Nc1ccccc1 [Compound 2a] | – | 149 °C | 9.16 ± 3.49 µM | 41% | 42.8% | > 10 µM | 79.7% | 47.3% | > 10 µM | 51.1% | 45.7% | IC50 ([2]; 184B5, 48 h, MTT, mean ± SD): 11 ± 0.73 µM; SI (selectivity index) breast [3]: 1.20; DPPH radical scavenging kinetics [6]: reaching the maximum activity at time-point 0′
O=c1ccc2cc(NC(=[Se])Nc3ccccc3)ccc2o1 [Compound 3a] | – | 169 °C | > 10 µM | 53.5% | 29.8% | 6.49 ± 1.58 µM | 47.5% | 30.2% | > 10 µM | 66% | 10.3% | IC50 (HCT-116 cells (colon); HCT-116, 48 h, MTT, mean ± SD): 5.86 ± 0.52 µM; DPPH radical scavenging kinetics [6]: reaching the maximum activity at time-point 0′
CCCCNC(=[Se])Nc1ccc(OC)cc1 [Compound 4c] | decomposed before screening | 89 °C | – | – | – | – | – | – | – | – | – | –
CCCCCCNC(=[Se])Nc1ccccc1 [Compound 5a] | decomposed before screening | 59 °C | – | – | – | – | – | – | – | – | – | –
Clc1ccc(NC(=[Se])NCc2ccco2)cc1 [Compound 1d] | – | 128 °C | > 10 µM | 78.2% | 27.9% | 8.07 ± 3.77 µM | 48.6% | 35% | > 10 µM | 52.2% | 27.3% | IC50 (HCT-116 cells (colon); HCT-116, 48 h, MTT, mean ± SD): 7.8 ± 0.56 µM
CCCCCCNC(=[Se])Nc1ccc(C)cc1 [Compound 5b] | decomposed before screening | 88 °C | – | – | – | – | – | – | – | – | – | –
CCCCNC(=[Se])Nc1ccc(C)cc1 [Compound 4b] | decomposed before screening | 46 °C | – | – | – | – | – | – | – | – | – | –
Clc1ccc(NC(=[Se])NCc2nccs2)cc1 [Compound 2d] | – | 165 °C | > 10 µM | 59.7% | 35% | > 10 µM | 77.2% | 67.1% | 8.65 ± 0.29 µM | 45.8% | 37.2% | IC50 [7]: 5.22 ± 0.07 µM; SI (selectivity index) lung ([5]; IC50 (BEAS-2B)/IC50 (HTB-54)): 0.60; DPPH radical scavenging capacity compared with ascorbic acid ([6]; at lower concentrations): greater radical scavenging capacity than ascorbic acid
[Se]=C(Nc1ccccc1)NC12CC3CC(CC(C3)C1)C2 [Compound 6a, N´-adamantyl-N-(phenyl)selenourea] | – | 161 °C | – | – | – | – | – | – | – | – | – | IC50 ([2]; 184B5, 48 h): 22.2 ± 4.07 µM; IC50 ([3]; MCF7, 48 h): 9.88 ± 1.46 µM; viability at 10 µM ([3]; MCF7, 48 h): 54.3%; viability at 50 µM ([3]; MCF7, 48 h): 18.2%; SI (selectivity index) breast [3]: 2.25; IC50 (HCT-116 cells (colon); HCT-116, 48 h): 5.69 ± 0.71 µM; ABTS radical scavenging activity compared with Trolox [8]: significant lower radical scavenging activity than Trolox; IC50 ([4]; HT-29, 48 h): 5.03 ± 3.06 µM; viability at 10 µM ([4]; HT-29, 48 h): 43%; viability at 50 µM ([4]; HT-29, 48 h): 33.9%; IC50 ([5]; HTB-54, 48 h): > 10 µM; viability at 10 µM ([5]; HTB-54, 48 h): 51.9%; viability at 50 µM ([5]; HTB-54, 48 h): 15.7%
N#Cc1ccc(NC(=[Se])NCc2nccs2)cc1 [Compound 2e] | – | 152 °C | – | 62.3% | 43.6% | – | 57.9% | 59.2% | – | 66.6% | 40.1% | ABTS radical scavenging activity [8]: above 90%; DPPH radical scavenging kinetics [6]: reaching the maximum activity at time-point 0′

Source: PMC8156206, “Novel N,N′-Disubstituted Selenoureas as Potential Antioxidant and Cytotoxic Agents” (Antioxidants, 2021)
